For one experiment, the target named is KRas G12C (Homo sapiens (Human), UniProt P01116, G12C). Description: Nucleotide exchange assay (NEA)-HTRF, SOS1 catalyzed displacement of GDP by GTP (Test Example 4). The experiment is classed as biochemical. As for the experimental part: The effects of compounds on SOS1 catalyzed displacement of GDP by GTP on KRas proteins was examined by homogeneous time-resolved fluorescence (HTRF). 30 μM 6×his labeled KRas G12C recombinant protein and 80 μM fluorochrome DY647 labeled GDP were co-incubated in a labeling buffer (1 mM DTT, 7.5 mM EDTA, 25 mM Tris-HCl, 45 mM NaCl) at 20° C. away from light for 2 hours. Protein quantification was performed after purification on the NAP-5 column to determine the concentration of KRas G12C-GDP.
1000× stock solutions of compounds at a concentration gradient of 3.16 were prepared by using DMSO, and diluted 250 times by a reaction buffer (40 mM N-2-hydroxyethylpiperazine-N-2-ethane sulfonic acid (HEPES), 10 mM MgCl2, 1 mM DTT, 0.002% Triton X-100) into 4× stock solutions of compounds. KRas G12C-GDP/Tb working solution (40 nM KRas G12C-GDP, 1×anti-his Tb) and SOS1/GTP working solution (0.2 μM SOS1, 200 μM GTP) were prepared by using the reaction buffer.
5 μl of 4×stock solution of a compound and 10 μl of KRas G12C-GDP/T working solution were added to each well of 96-well plate with white unclear bottom, and 5 μl of reaction buffer was added to the well of control group in stead of the 4×stock solution of a compound. After incubation at 20° C. away from light for 15 minutes, 5 μl of SOS1/GTP working solution was added and incubated at 20° C. away from light for 2 hours, and then a value of fluorescence intensity was read (excitation wavelength: 320 nm, and emission wavelengths: 615 nm and 665 nm). Besides, group TO was established with 10 μl of the reaction buffer and 10 μl of the KRas G12C-GDP/Tb working solution, and the value of fluorescence intensity was directly read. A relative light unit (RLU) was calculated by the following equation: RLU=(665 nm signal/615 nm signal)×10^4; and the inhibition rate (IR) of the compound was calculated by the following equation: IR (%)=(RLUcompound−RLUcontrol)/(RLUT0−RLUcontrol)×100%. The value of IC50 was calculated by fitting a gradiently diluted concentration of the compound and the corresponding cell proliferation inhibition rate using a four-parameter method.
For orientation: Time-resolved FRET reads energy transfer from a long-lived donor to a nearby acceptor.

Experiment [1] concerns phosphorylated ERK in MIA PaCa2 cells with Kras G12C mutation. In words: p-ERK HTRF assay for cells (Test Example 2). Type of experiment: cell-based, human. To be noted: MIA PaCa2 cells, 2 hours with compound, read-out: p-ERK IC50. In outline:
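MIA PaCa2 cells (2.5E4/well, seeded overnight) treated 2 h with compound in a 3.16-fold series at 0.1% DMSO. Cells lysed 30 min; p-ERK read by HTRF after 4 h antibody incubation. Inhibition relative to DMSO and blank; IC50 by four-parameter fit.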

For experiment [2], the system named is MIA PaCa-2 cells with Kras G12C mutation. In words: Cell proliferation inhibition experiment, 3D spheroid, CellTiter-Glo (Test Example 3). Type of experiment: cell-based, human. The settings on record: 5 days, read-out: MIA-PaCa2 IC50. The method, boiled down:
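MIA PaCa-2 spheroids (200 cells/well) were formed overnight, then exposed for 5 days to compounds in 3.16-fold dilutions at 0.1% DMSO. Viability was read by CellTiter-Glo luminescence, and inhibition was normalised to DMSO control and medium blank. IC50 came from a four-parameter fit.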

Experiment [3] relates to A549 cells with Kras G12S mutation. Description: Cell proliferation inhibition experiment, 3D spheroid, CellTiter-Glo (Test Example 1). Type of experiment: cell-based, human. The settings on record: 5 days. In outline:
(§1)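 NCI-H358 (800 cells/well) and A549 (400 cells/well) grown overnight as 3D spheroids in 2% FBS medium, then exposed to compound dilution series (3.16-fold, 0.1% DMSO) for 5 days. CellTiter-Glo luminescence read; inhibition relative to DMSO and blank, IC50 by four-parameter fit.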
On the technique in general: Cellular ATP, detected with luciferase, serves as a proxy for viable cell number.

The test system of experiment [4] is NCI-H358 cells with Kras G12C mutation. The description is as above. The experiment is classed as cell-based, human. To be noted: 5 days. The method, boiled down:
as §1

[5] abbreviates: Homo sapiens, MIA PaCa-2, 120 h.

Read-outs that look alike come from different tables or passages of the source.

Chain of KRas G12C (P01116-2 other isoform, or with tags, fused parts or gaps G12C): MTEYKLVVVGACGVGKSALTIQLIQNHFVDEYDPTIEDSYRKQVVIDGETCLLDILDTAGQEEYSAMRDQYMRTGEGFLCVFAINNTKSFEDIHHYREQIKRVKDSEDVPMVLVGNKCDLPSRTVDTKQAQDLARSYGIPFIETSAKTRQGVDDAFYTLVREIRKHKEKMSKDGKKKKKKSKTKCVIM

The term IC50 denotes the concentration needed to halve the response being measured. On KRas G12C, `C=CC(=O)N1CCN2c3c(c(=O)n(-c4c(C)ccnc4C(C)C)c4nc(-c5c(O)cccc5F)c(F)cc34)OC[C@H]2C1` (atropisomer, axis not shown) [Compound Z1-2] registered a half-inhibitory concentration (IC50) of 1430 nM.
As to `C=CC(=O)N1C[C@@H]2C(=O)N(C)c3c(c4cc(F)c(-c5c(O)cccc5F)nc4n(-c4c(C#N)cccc4C(C)C)c3=O)N2C[C@H]1C` (atropisomer, axis not shown) [Compound Z38-1, 2-((2R,4aR)-3-acryloyl-11-fluoro-10-(2-fluoro-6-hydroxyphenyl)-2,6-dimethyl-5,7-dioxo-2,3,4,4a,5,6-hexahydro-1H-pyrazino[1′,2′:4,5]pyrazino[2,3-c][1,8]naphthyridin-8(7H)-yl)-3-isopropylbenzonitrile], the concentration for half-maximal inhibition (IC50) is 212 nM in experiment [1]; 27 nM in experiment [2]; above 30000 nM in experiment [3]; 7 nM in experiment [4]; 53 nM at KRas G12C.
As for `C=CC(=O)N1C[C@@H]2C(=O)N(C)c3c(c4cc(F)c(-c5c(O)cccc5F)nc4n(-c4c(C#N)cccc4C(C)C)c3=O)N2C[C@H]1C` (atropisomer, axis not shown) [Compound Z38-2, 2-((2R,4aR)-3-acryloyl-11-fluoro-10-(2-fluoro-6-hydroxyphenyl)-2,6-dimethyl-5,7-dioxo-2,3,4,4a,5,6-hexahydro-1H-pyrazino[1′,2′:4,5]pyrazino[2,3-c][1,8]naphthyridin-8(7H)-yl)-3-isopropylbenzonitrile], the concentration for half-maximal inhibition (IC50) in experiment [3] is above 30000 nM; in experiment [4], 513 nM; at KRas G12C it was 2150 nM.
Regarding `C=CC(=O)N1CCN2c3c(c(=O)n(-c4c(C)ccnc4C(C)C)c4nc(-c5c(O)cccc5F)c(F)cc34)OC[C@H]2C1` (single isomer, unassigned) [Compound Z1-1], the IC50 was determined as 512 nM in experiment [1] (Homo sapiens, MIA PaCa-2, 2 h); 95 nM in experiment [2] (setting [5]); 10700 nM in experiment [3]; 31 nM in experiment [4]; 152 nM on KRas G12C.
With `C=CC(=O)N1CCN2c3c(c(=O)n(-c4c(C)ccnc4C(C)C)c4nc(-c5c(O)cccc5F)c(F)cc34)N(C)C(=O)[C@H]2C1` (single isomer, unassigned) [Compound Z9-1], the IC50 in experiment [3] (Homo sapiens, A549, 120 h) is above 10000 nM; in experiment [4] it was 218 nM; at KRas G12C, 2570 nM.
As to `C=CC(=O)N1C[C@@H]2C(=O)N(C)c3c(c4cc(F)c(-c5c(O)cccc5F)nc4n(-c4c(C)ccnc4C(C)C)c3=O)N2C[C@H]1C` (single isomer, unassigned) [Compound Z10-1], the IC50 in experiment [1] is 460 nM; in experiment [3] it was above 10000 nM; in experiment [4], 70 nM; on KRas G12C it was 708 nM.
Turning to `C=CC(=O)N1CCN2c3c(c(=O)n(-c4c(C)ncnc4C(C)C)c4nc(-c5c(O)cccc5F)c(F)cc34)N(C)C(=O)[C@H]2C1` (single isomer, unassigned) [Compound Z21-1], the IC50 in experiment [1] is 428 nM; in experiment [2], 46 nM; in experiment [3] it was above 30000 nM; in experiment [4], 27 nM; on KRas G12C, 172 nM.
As for `C=CC(=O)N1CCN2c3c(c(=O)n(-c4c(C)ncnc4C(C)C)c4nc(-c5c(O)cccc5F)c(F)cc34)N(C)C(=O)[C@H]2C1` (single isomer, unassigned) [Compound Z21-2], the IC50 in experiment [3] is above 30000 nM; in experiment [4], 407 nM; on KRas G12C it was 3940 nM.
`C=CC(=O)N1CCN2c3c(c(=O)n(-c4c(C)ccnc4C(C)C)c4nc(-c5c(O)cccc5F)c(Cl)cc34)NC(=O)[C@H]2C1` (single isomer, unassigned) [Compound Z24-1]: the IC50 was 536 nM in experiment [1], above 30000 nM in experiment [3], 28 nM in experiment [4] and 291 nM on KRas G12C.
Consider `C=CC(=O)N1CCN2c3c(c(=O)n(-c4c(C)ccnc4C(C)C)c4nc(-c5c(O)cccc5F)c(Cl)cc34)NC(=O)[C@H]2C1` (single isomer, unassigned) [Compound Z24-2], for which the 50% inhibitory concentration (IC50) came to 61 nM in experiment [1]; 4 nM in experiment [2] (setting [5]); 11300 nM in experiment [3]; 3 nM in experiment [4]; 38 nM on KRas G12C.
With `C=CC(=O)N1CCN2c3c(c(=O)n(-c4c(C)ccnc4C(C)C)c4nc(-c5c(O)cccc5F)c(Cl)cc34)N(C)C(=O)[C@H]2C1` (single isomer, unassigned) [Compound Z25-1], the half-maximal inhibitory concentration (IC50) is above 30000 nM in experiment [3] (Homo sapiens, A549, 120 h); 50 nM in experiment [4]; 951 nM on KRas G12C.
With `[2H]C([2H])([2H])N1C(=O)[C@H]2CN(C(=O)C=C)CCN2c2c1c(=O)n(-c1c(C)ccnc1C(C)C)c1nc(-c3c(O)cccc3F)c(Cl)cc21` (single isomer, unassigned) [Compound Z26-1], the IC50 in experiment [3] is above 30000 nM; in experiment [4] it was 42 nM; at KRas G12C, 868 nM.
On to `C=CC(=O)N1C[C@@H]2C(=O)N(C)c3c(c4cc(Cl)c(-c5c(O)cccc5F)nc4n(-c4c(C)ccnc4C(C)C)c3=O)N2C[C@H]1C` (single isomer, unassigned) [Compound Z27-1], for which the IC50 is 157 nM in experiment [1]; 12700 nM in experiment [3] (Homo sapiens, A549, 120 h); 12 nM in experiment [4]; 198 nM on KRas G12C.
As for `C=CC(=O)N1C[C@@H]2C(=O)N(C)c3c(c4cc(F)c(-c5c(O)cccc5F)nc4n(-c4c(C)cnn4C(C)C)c3=O)N2C[C@H]1C` (single isomer, unassigned) [Compound Z33-1], the IC50 is 92 nM in experiment [2] (setting [5]), above 30000 nM in experiment [3], 74 nM in experiment [4] and 515 nM at KRas G12C.
As for `C=CC(=O)N1CCN2c3c(c(=O)n(-c4c(C(C)C)ncnc4C(C)C)c4c(F)c(-c5c(O)cccc5F)c(Cl)cc34)NC(=O)[C@H]2C1` (single isomer, unassigned) [Compound Z37-2], the half-inhibitory concentration (IC50) in experiment [3] amounted to 3320 nM; in experiment [4] it was 165 nM; at KRas G12C, 1900 nM.
For `[2H]C([2H])([2H])N1C(=O)[C@H]2CN(C(=O)C=C)CCN2c2c1c(=O)n(-c1c(C(C)C)ncnc1C(C)C)c1c(F)c(-c3c(O)cccc3F)c(Cl)cc21` (single isomer, unassigned) [Compound Z39-2] the same measures were 7780 nM, 316 nM and 2240 nM.
With `C=CC(=O)N1C[C@@H]2C(=O)N(C)c3c(c4cc(Cl)c(-c5c(O)cccc5F)c(F)c4n(-c4c(C(C)C)ncnc4C(C)C)c3=O)N2C[C@H]1C` (single isomer, unassigned) [Compound Z50-2], the IC50 in experiment [1] worked out at 316 nM; in experiment [3] it was 3870 nM; in experiment [4], 320 nM; on KRas G12C it was 1450 nM.
As to `C=CC(=O)N1C[C@@H]2C(=O)N(C)c3c(c4cc(F)c(-c5c(O)cccc5F)nc4n(-c4c(C)ccnc4C(C)C)c3=O)N2C[C@H]1C` [Compound Z10, (2R,4aR)-3-acryloyl-11-fluoro-10-(2-fluoro-6-hydroxyphenyl)-8-(2-isopropyl-4-methylpyridin-3-yl)-2,6-dimethyl-2,3,4,4a,6-hexahydro-1H-pyrazino[1′,2′:4,5]pyrazino[2,3-c][1,8,8]naphthyridin-5-dione], the 50% inhibitory concentration (IC50) is 75 nM in experiment [1] (Homo sapiens, MIA PaCa-2, 2 h); 12100 nM in experiment [3] (Homo sapiens, A549, 120 h); 8 nM in experiment [4] (Homo sapiens, NCI-H358, 120 h); 67 nM at KRas G12C.

The values above are taken from patent publication US12054497B2, “Substituted heterocyclic fused cyclic compound, preparation method therefor and pharmaceutical use thereof” (GENFLEET THERAPEUTICS (SHANGHAI) INC., priority 2019, dated 2024).
